# Several values for one entry are separate records, joined by “and”; a condition that tells them apart may be missing. Equal values may be shown once.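 Five compound concentrations were applied to cells in 96-well plates for 48 hours; endpoints were derived by simple linear interpolation of the resulting dose-response curve. GI50 is the concentration that inhibits growth by half. TGI denotes the concentration required for complete inhibition of growth.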
# What was measured:
# Test in all cases: DTP human tumour cell line panel, 48 h
# [1] = tested on: NCI/ADR-RES ovarian
# [2] = tested on: SF-295 CNS
# [3] = tested on: ACHN renal
# [4] = tested on: A549 NSCLC
# [5] = tested on: SK-MEL-28 melanoma
# [6] = tested on: SF-539 CNS
# [7] = tested on: K-562 leukemia
# [8] = tested on: A498 renal
# [9] = tested on: SF-268 CNS
# [10] = tested on: HCT-116 colon
Structure (SMILES),GI50 [1] [µM],TGI [1],GI50 [2] [µM],TGI [2],GI50 [3] [µM],TGI [3],GI50 [4] [µM],TGI [4],GI50 [5] [µM],TGI [5],GI50 [6] [µM],TGI [6],GI50 [7] [µM],TGI [7],GI50 [8] [µM],TGI [8] [µM],GI50 [9] [µM],TGI [9],GI50 [10] [µM],TGI [10]
NC(=O)c1cc2c3ccccc3ccn2c1-c1ccccc1,0.0317,0.0919 µM,0.0304,1.05 µM,3.17,30.5 µM,0.0969,9.82 µM,14.7,34.5 µM,0.0248,0.0716 µM,0.12,11.8 µM,0.0468,7.42,0.0759,13.4 µM,0.0428,4.22 µM
COc1ccc(Cn2c3c(cc(OS(=O)(=O)C(F)(F)F)c2=O)Cc2ccccc2-3)cc1,3.03,50 µM and > 100 µM,31.7,50 µM and > 100 µM,5.25,50 µM and > 100 µM,9.95,50 µM and > 100 µM,22.8,50 µM and > 100 µM,5.29,50 µM and > 100 µM,5.1,50 µM and > 100 µM,> 100,> 100,8.54,50 µM and > 100 µM,3.53,50 µM and > 100 µM
COc1cc(/C=C2\C(=O)Nc3ccc(N(C)C)cc32)cc(OC)c1OC,1.93,6.27 µM,3.16,> 100 µM,4.72,98.4 µM,3.86,35.9 µM,5.87,> 100 µM,2.44,7.88 µM,0.58,> 25.6 µM,4.67,> 100,3.92,33.1 µM,2.94,> 43.9 µM
